In PubChem BioAssay (NCI):
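Dose response: 5 concentrations. Exposure: 48 h. Format: 96-well plates. Endpoint: linear interpolation; highest concentration if not reached. TGI: concentration producing complete growth inhibition.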

Legend:
Assay in all cases: inhibition of tumour cell growth, NCI panel, 48 h
SNB-75 CNS = tested on: SNB-75 CNS
UACC-257 melanoma = tested on: UACC-257 melanoma
NCI-H460 lung = tested on: NCI-H460 lung
U251 CNS = tested on: U251 CNS
SNB-19 CNS = tested on: SNB-19 CNS
SR leukemia = tested on: SR leukemia
LOX IMVI melanoma = tested on: LOX IMVI melanoma
KM12 colon = tested on: KM12 colon
UO-31 renal = tested on: UO-31 renal
A498 renal = tested on: A498 renal
SK-MEL-5 melanoma = tested on: SK-MEL-5 melanoma
HCT-116 colon = tested on: HCT-116 colon
HS 578T breast = tested on: HS 578T breast
CAKI-1 renal = tested on: CAKI-1 renal
HOP-92 NSCLC = tested on: HOP-92 NSCLC
BT-549 breast = tested on: BT-549 breast
MDA-MB-231 breast = tested on: MDA-MB-231 breast
RXF 393 renal = tested on: RXF 393 renal

CCN1CCC(O)(/C=C/c2ccc(Cl)cc2)C(C(=O)/C=C/c2ccc(Cl)cc2)C1 (centres undefined)
TGI (SNB-75 CNS): 74.5 µM | TGI (UACC-257 melanoma): 35.5 µM | TGI (NCI-H460 lung): > 100 µM | TGI (U251 CNS): 44.9 µM | TGI (SNB-19 CNS): > 100 µM | TGI (SR leukemia): > 100 µM | TGI (LOX IMVI melanoma): 32.4 µM | TGI (KM12 colon): 29.5 µM | TGI (UO-31 renal): > 100 µM | TGI (A498 renal): 34.2 µM | TGI (SK-MEL-5 melanoma): 28.3 µM | TGI (HCT-116 colon): 13.4 µM

O=C(NC(Cc1ccccc1)P(=O)(O)c1ccccc1)OCc1ccccc1 (centres undefined)
TGI (HS 578T breast): > 100 µM | TGI (SNB-75 CNS): > 100 µM | TGI (UACC-257 melanoma): > 100 µM | TGI (NCI-H460 lung): > 100 µM | TGI (CAKI-1 renal): > 100 µM | TGI (HOP-92 NSCLC): > 100 µM | TGI (U251 CNS): > 100 µM | TGI (SNB-19 CNS): > 100 µM | TGI (SR leukemia): > 100 µM | TGI (LOX IMVI melanoma): > 100 µM | TGI (KM12 colon): > 100 µM | TGI (UO-31 renal): > 100 µM | TGI (SK-MEL-5 melanoma): > 100 µM | TGI (BT-549 breast): > 100 µM | TGI (HCT-116 colon): > 100 µM

Cc1ccc(S(=O)(=O)N/N=C2\CC3C4CCC3C2C4)cc1 (centres undefined)
TGI (HS 578T breast): > 100 µM | TGI (SNB-75 CNS): > 100 µM | TGI (UACC-257 melanoma): > 100 µM | TGI (NCI-H460 lung): > 100 µM | TGI (CAKI-1 renal): > 100 µM | TGI (HOP-92 NSCLC): > 100 µM | TGI (U251 CNS): > 100 µM | TGI (SNB-19 CNS): > 100 µM | TGI (SR leukemia): > 100 µM | TGI (LOX IMVI melanoma): > 100 µM | TGI (KM12 colon): > 100 µM | TGI (UO-31 renal): > 100 µM | TGI (MDA-MB-231 breast): > 100 µM | TGI (A498 renal): > 100 µM | TGI (SK-MEL-5 melanoma): > 100 µM | TGI (RXF 393 renal): > 100 µM | TGI (HCT-116 colon): > 100 µM

O=c1[nH]c(Br)nc2c(N3CCCCC3)c[nH]c12
TGI (SNB-75 CNS): > 100 µM | TGI (UACC-257 melanoma): > 100 µM | TGI (NCI-H460 lung): > 100 µM | TGI (CAKI-1 renal): > 100 µM | TGI (HOP-92 NSCLC): > 100 µM | TGI (U251 CNS): > 100 µM | TGI (SNB-19 CNS): > 100 µM | TGI (LOX IMVI melanoma): > 100 µM | TGI (KM12 colon): > 100 µM | TGI (UO-31 renal): > 100 µM | TGI (A498 renal): > 100 µM | TGI (SK-MEL-5 melanoma): > 100 µM | TGI (RXF 393 renal): > 100 µM | TGI (HCT-116 colon): > 100 µM

C/C(CC(O)(C(F)(F)F)C(F)(F)F)=N/Nc1ccc([N+](=O)[O-])cc1[N+](=O)[O-]
TGI (HS 578T breast): 7.85 µM | TGI (SNB-75 CNS): > 10 µM | TGI (UACC-257 melanoma): > 10 µM | TGI (NCI-H460 lung): > 10 µM | TGI (CAKI-1 renal): > 10 µM | TGI (HOP-92 NSCLC): 4.7 µM | TGI (U251 CNS): > 10 µM | TGI (SNB-19 CNS): > 10 µM | TGI (SR leukemia): > 10 µM | TGI (LOX IMVI melanoma): > 10 µM | TGI (KM12 colon): > 10 µM | TGI (UO-31 renal): > 10 µM | TGI (MDA-MB-231 breast): 6.58 µM | TGI (A498 renal): 8.37 µM | TGI (SK-MEL-5 melanoma): 4 µM | TGI (RXF 393 renal): 7.53 µM | TGI (HCT-116 colon): 4.56 µM

Cc1nc2c(s/c(=N\N)n2-c2ccccc2)c(=O)n1C
TGI (SNB-75 CNS): > 100 µM | TGI (UACC-257 melanoma): > 100 µM | TGI (NCI-H460 lung): > 100 µM | TGI (CAKI-1 renal): > 100 µM | TGI (HOP-92 NSCLC): > 100 µM | TGI (U251 CNS): > 100 µM | TGI (SNB-19 CNS): > 100 µM | TGI (SR leukemia): > 100 µM | TGI (LOX IMVI melanoma): > 100 µM | TGI (KM12 colon): > 100 µM | TGI (UO-31 renal): > 100 µM | TGI (A498 renal): > 100 µM | TGI (SK-MEL-5 melanoma): > 100 µM | TGI (RXF 393 renal): > 100 µM | TGI (HCT-116 colon): > 100 µM

CC(C)[C@H]1NC(=O)[C@H]2N=C(O[C@@H]2C)[C@@H]2CCCN2C(=O)[C@H](Cc2ccccc2)NC(=O)[C@@H]2COC(=N2)[C@@H](Cc2ccccc2)NC(=O)[C@@H]2COC1=N2
TGI (HS 578T breast): > 100 µM | TGI (SNB-75 CNS): 75.6 µM | TGI (UACC-257 melanoma): > 100 µM | TGI (CAKI-1 renal): > 100 µM | TGI (U251 CNS): > 100 µM | TGI (SNB-19 CNS): > 100 µM | TGI (LOX IMVI melanoma): > 100 µM | TGI (KM12 colon): > 100 µM | TGI (UO-31 renal): > 100 µM | TGI (MDA-MB-231 breast): > 100 µM | TGI (SK-MEL-5 melanoma): > 100 µM | TGI (RXF 393 renal): > 100 µM | TGI (BT-549 breast): > 100 µM | TGI (HCT-116 colon): > 100 µM
